In patent publication US20250129078A1, “ERBB2 INHIBITORS” (Cogent Biosciences, Inc., priority 2023, published 2025):

target: EGFR WT (Homo sapiens (Human), UniProt P00533); assay: ErbB enzyme assay (CisBio HTRF-KinEASE-TK), EGFR WT; type: biochemical; conditions: ATP at Km (25 μM), 1 h incubation
Method: In vitro enzyme assays based on CisBio HTRF-KinEASE-TK technology were used to determine compound potencies. […]. Compounds were prepared as a three-fold serial dilution in DMSO and added to the assay to give the appropriate final concentration. After a 1 h incubation at ambient temperature, the reaction was quenched by adding 10 μL of 62.5 nM Sa-XL665 and 0.25×TK-Ab-Cryptate in HTRF detection buffer (all from CisBio, part of cat #62TKOPEC). After another 1 h incubation at ambient temperature, the extent of substrate phosphorylation was determined using a PerkinElmer EnVision multimode plate reader via time-resolved fluorescence dual wavelength detection. The percent of control (POC) was calculated using the ratio of emission at […] to the emission at 620 nm. One hundred POC was determined using DMSO only controls (no test compounds present) and zero POC was determined using pre-quenched controls reactions. A 4-parameter logistic equation was fit to the POC values as a function of the test compound concentration and the IC50 value was determined as the point where the curve crossed 50 POC.

Chain of EGFR WT (P00533 25-1210): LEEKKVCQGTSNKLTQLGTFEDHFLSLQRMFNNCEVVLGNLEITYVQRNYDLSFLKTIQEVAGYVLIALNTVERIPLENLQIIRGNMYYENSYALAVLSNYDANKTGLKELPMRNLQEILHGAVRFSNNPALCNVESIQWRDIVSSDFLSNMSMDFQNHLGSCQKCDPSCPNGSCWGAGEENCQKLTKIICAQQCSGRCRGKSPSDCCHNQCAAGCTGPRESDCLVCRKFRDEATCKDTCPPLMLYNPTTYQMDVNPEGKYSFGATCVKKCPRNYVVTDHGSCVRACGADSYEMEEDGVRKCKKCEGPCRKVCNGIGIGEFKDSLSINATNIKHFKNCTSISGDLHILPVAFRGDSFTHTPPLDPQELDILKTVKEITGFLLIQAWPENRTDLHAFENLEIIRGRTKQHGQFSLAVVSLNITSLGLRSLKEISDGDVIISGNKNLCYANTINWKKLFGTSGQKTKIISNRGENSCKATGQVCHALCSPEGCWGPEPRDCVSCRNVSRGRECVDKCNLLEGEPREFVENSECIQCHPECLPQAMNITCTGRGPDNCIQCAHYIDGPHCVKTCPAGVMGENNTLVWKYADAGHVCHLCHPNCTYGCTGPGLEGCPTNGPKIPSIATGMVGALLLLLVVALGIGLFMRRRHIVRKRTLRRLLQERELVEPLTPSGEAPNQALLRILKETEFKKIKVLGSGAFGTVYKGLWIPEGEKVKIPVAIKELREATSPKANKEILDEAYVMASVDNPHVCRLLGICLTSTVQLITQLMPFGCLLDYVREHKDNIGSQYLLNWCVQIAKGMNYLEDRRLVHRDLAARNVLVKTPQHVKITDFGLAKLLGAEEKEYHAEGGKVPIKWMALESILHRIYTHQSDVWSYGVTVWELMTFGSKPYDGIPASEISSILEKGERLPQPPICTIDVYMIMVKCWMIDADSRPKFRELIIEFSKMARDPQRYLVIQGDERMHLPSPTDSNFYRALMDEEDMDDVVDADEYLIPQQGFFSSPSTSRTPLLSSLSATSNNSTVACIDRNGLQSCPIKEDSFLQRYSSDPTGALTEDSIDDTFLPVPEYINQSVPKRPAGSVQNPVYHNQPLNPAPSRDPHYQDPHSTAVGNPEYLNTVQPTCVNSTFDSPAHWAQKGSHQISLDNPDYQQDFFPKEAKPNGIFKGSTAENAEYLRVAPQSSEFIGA

Row | Compound | IC50 [µM]
1 | C=CC(=O)N1CCN(c2ncc3ncnc(Nc4ccc(Oc5cc(F)c6c(c5)nnn6C)c(C)c4F)c3n2)C[C@@H]1C1CC1 [Compound 192, (S)-1-(2-cyclopropyl-4-(8-((2-fluoro-4-((7-fluoro-1-methyl-1H-benzo[d][1,2,3]triazol-5-yl)oxy)-3-methylphenyl)amino)pyrimido[5,4-d]pyrimidin-2-y1)piperazin-1-yl)prop-2-en-1-one] | 0.5 to 1
2 | C=CC(=O)N[C@H]1CCN(c2ccc3ncnc(Nc4ccc(Oc5ccc6c(c5)nnn6C)c(C)c4F)c3n2)C[C@H]1F [Compound 281, N-((3R,4S)-3-fluoro-1-(4-((2-fluoro-3-methyl-4-((1-methyl-1H-benzo[d][1,2,3]triazol-5-yl)oxy)phenyl)amino)pyrido[3,2-d]pyrimidin-6-yl)piperidin-4-yl)acrylamide] | < 0.05
3 | C=CC(=O)N1CCN(c2ncc3ncnc(Nc4ccc(Oc5ccc6c(c5)nnn6C)c(F)c4F)c3n2)CC1 [Compound 10, 1-(4-(8-((2,3-difluoro-4-((1-methyl-1H-benzo[d][1,2,3]triazol-5-yl)oxy)phenyl)amino)pyrimido[5,4-d]pyrimidin-2-yl)piperazin-1-yl)prop-2-en-1-one] | 0.1 to 0.5
4 | C=CC(=O)N(C)C1C2CN(c3ncc4ncnc(Nc5ccc(Oc6cc(F)c7c(c6)nnn7C)c(C)c5F)c4n3)CC21 (stereo not shown) [Compound 68, N-(3-(8-((2-fluoro-4-((7-fluoro-1-methyl-1H-benzo[d][1,2,3]triazol-5-yl)oxy)-3-methylphenyl)amino)pyrimido[5,4-d]pyrimidin-2-yl)-3-azabicyclo[3.1.0]hexan-6-yl)-N-methylacrylamide] | 0.05 to 0.1
5 | C=CC(=O)N[C@@H]1C[C@H](C)CN(c2ccc3ncnc(Nc4ccc(Oc5ccc6c(c5)nnn6C)c(C)c4F)c3n2)C1 (single isomer, unassigned) [Compound 336] | ≥ 1
6 | C=CC(=O)N1CCN(c2ncc3ncnc(Nc4ccc(Oc5cc(F)c6c(c5)ncn6C)c(C)c4)c3n2)C[C@H]1CC [Compound 163, (R)-1-(2-ethyl-4-(8-((4-((7-fluoro-1-methyl-1H-benzo[d]imidazol-5-yl)oxy)-3-methylphenyl)amino)pyrimido[5,4-d]pyrimidin-2-yl)piperazin-1-yl)prop-2-en-1-one] | 0.1 to 0.5
7 | C=CC(=O)N1CCN(c2ncc3ncnc(Nc4cc(F)c(Oc5ccc6c(c5)nnn6C)c(Cl)c4)c3n2)C[C@H]1C [Compound 194, (R)-1-(4-(8-((3-chloro-5-fluoro-4-((1-methyl-1H-benzo[d][1,2,3]triazol-5-yl)oxy)phenyl)amino)pyrimido[5,4-d]pyrimidin-2-y1)-2-methylpiperazin-1-yl)prop-2-en-1-one] | < 0.05
8 | C=C(F)C(=O)N1CCN(c2ccc3ncnc(Nc4ccc(Oc5ccc6c(c5)nnn6C)c(C)c4)c3n2)C[C@@H]1CC#N [Compound 85, (S)-2-(1-(2-fluoroacryloyl)-4-(4-((3-methyl-4-((1-methyl-1H-benzo[d][1,2,3]triazol-5-yl)oxy)phenyl)amino)pyrido[3,2-d]pyrimidin-6-yl)piperazin-2-yl)acetonitrile] | 0.5 to 1
9 | C=CC(=O)N1CCN(c2ncc3ncnc(Nc4ccc(Oc5cnn6ccnc6c5)c(C)c4F)c3n2)CC1 [Compound 237, 1-(4-(8-((2-fluoro-4-(imidazo[1,2-b]pyridazin-7-yloxy)-3-methylphenyl)amino)pyrimido[5,4-d]pyrimidin-2-yl)piperazin-1-yl)prop-2-en-1-one] | < 0.05
10 | C=C1CCN(C2CCN(c3ccc4ncnc(Nc5ccc(Oc6ccc7c(c6)nnn7C)c(C)c5F)c4n3)CC2)C1=O [Compound 241, 1-(1-(4-((2-fluoro-3-methyl-4-((1-methyl-1H-benzo[d][1,2,3]triazol-5-yl)oxy)phenyl)amino)pyrido[3,2-d]pyrimidin-6-yl)piperidin-4-yl)-3-methylenepyrrolidin-2-one] | ≥ 1
